According to patent US11634378B2, “Compounds and methods targeting GPER in calcium disorders” (Saint Louis University, priority 2017, dated 2023):

How the values were obtained:
GPER [1] = target: T1, GPER (Homo sapiens, UniProt Q99527); test: Calcium mobilization antagonism assay in indo1-AM-loaded HL-60 cells (against EC80 of G-1); format: cell-based; conditions: Table 3; HL-60 cells endogenously expressing GPER; mean ± SD of three IC50 values from triplicates; read-out: IC50 (nM) of the inhibition of calcium mobilization
T1 construct: HL-60 cells (a human promyelocytic leukemia cell line) which endogenously expresses GPER; host or cells: HL-60
Procedure: Human Myelocytic Leukemia (HL-60) cells were grown in phenol red free media containing 10% […] fetal bovine serum (FBS), 1% Pen-Strep, and 1% Glutamax. Cells were grown to no more than 1×10^6 cells/mL to prevent differentiation before being split. Prior to assay cells were transferred to phenol red free media containing charcoal-stripped FBS. On the day of the assay cells were centrifuged down at 16.4 G for 5 minutes and washed with 50:1 HBSS/HEPES. Cells were resuspended at 1×10^7 cells/mL in 50:1 HBSS/HEPES. To the resuspended cells, 0.05% pluronic acid and 5 uM of fluorescent calcium indicator, Indo-1AM, were added. The dye solution was incubated for 0.5 hrs at room temperature with rocking. After 30 minutes cells were spun down, and resuspended in 50:1 HBSS/HEPES. Cells were placed on ice for at least 5 minutes and then resuspended in 8.5 mL of 50:1 HBSS/HEPES (containing probenacid) for agonism assays or 6.5 mL of 50:1 HBSS/HEPES (containing probenacid) for antagonism assays. For agonism assays 160 μL of cell suspension were added to a 96-well plate and were incubated at 37° for 10 minutes in a FlexStation® 3 plate reader (Molecular Devices). Inside the plate reader, 40 μL of agonist were added to each well and excited with 350 nm and read at emissions of 405 nm and 490 nm. For antagonist assays, 120 μL of cell suspension were added to a 96-well plate. In addition to the cell suspension 40 μL of antagonist were added to the wells. Cells with antagonists were incubated at 37° for 15 minutes in FlexStation® 3 plate reader (Molecular Devices). Inside the plate reader, 40 μL of agonist at the EC80 were added to each well and excited with 350 nm and read at emissions of 405 nm and 490 nm.
In vitro biological evaluation using calcium mobilization. HL-60 cells were grown in 10% charcoal-stripped RPMI 72 hours before assays were performed. Cells were centrifuged and counted with a hemocytometer from Hausser Scientific (Bedford, Mass.). The assay required 100,000 cells per well, for a total number of cells on a 96-well plate assay of about 1×10 (Matthews and Gustafsson, 2003). HL-60 cells (1×10 (Matthews and Gustafsson, 2003)) were incubated in 50:1 Hanks balanced salt solution (Millipore Sigma, Saint Louis, Mo. and HEPES (Gibco by Life Technologies, Gaithersburg, Md.) containing 5 μM indo1-AM (Thermo Fischer Scientific, Waltham, Mass.) and 0.05% pluronic acid (AAT Bioquest Inc., Sunnyvale, Calif.) for 0.5 h at RT. Cells were spun down and washed with 50:1 HBSS/HEPES, and resuspended in media. Resuspension was placed on ice for no longer than 5 mins. Cells were loaded into plate at 100,000 cells/well. For agonist cells were immediately incubated for 15 mins at 37° C. Following the 15 mins incubation FlexStation 3 Multimode Plate Reader (Molecular Devices, Sunnyvale, Calif.) added the appropriate amount of agonist and was read for 150 seconds at 37° C. For antagonists once the cells were seeded, antagonist was added and incubated for 15 mins at 37° C. After 15 mins of equilibration, the EC80 of G-1 was added by the FlexStation and read for 150 secs at 37° C. Calcium mobilization was determined ratiometrically using λex 350 nm and λem 405/490 nm.

ERα = target: T2, ERα (Homo sapiens, UniProt P03372); test: ERα PolarScreen fluorescence polarization competitor assay; format: binding
T2 construct: purchased Invitrogen (Carlsbad, Calif.)
T2 sequence (P03372 1-595): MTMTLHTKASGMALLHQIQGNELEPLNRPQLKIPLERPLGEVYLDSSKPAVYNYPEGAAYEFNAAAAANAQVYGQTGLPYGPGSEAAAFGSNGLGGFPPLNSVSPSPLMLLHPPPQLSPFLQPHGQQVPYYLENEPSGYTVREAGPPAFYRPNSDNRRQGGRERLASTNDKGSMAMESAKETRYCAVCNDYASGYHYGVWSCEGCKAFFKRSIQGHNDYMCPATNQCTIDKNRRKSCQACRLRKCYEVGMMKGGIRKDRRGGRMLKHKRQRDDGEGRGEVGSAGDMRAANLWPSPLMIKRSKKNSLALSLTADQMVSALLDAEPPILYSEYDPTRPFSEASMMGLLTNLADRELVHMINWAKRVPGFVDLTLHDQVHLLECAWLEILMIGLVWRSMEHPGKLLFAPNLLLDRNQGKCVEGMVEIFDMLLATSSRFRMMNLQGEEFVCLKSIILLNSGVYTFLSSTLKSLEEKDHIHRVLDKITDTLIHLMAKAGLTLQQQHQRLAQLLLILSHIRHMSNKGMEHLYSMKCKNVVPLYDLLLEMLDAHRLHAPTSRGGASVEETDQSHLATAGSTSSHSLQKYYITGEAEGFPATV
Procedure: (§1) ERα and ERβ Fluorescence Polarization Assay. The ERα and ERβ PolarScreen™ Competitor Assays by Invitrogen (Carlsbad, Calif.) were purchased. The concentrations of the ERα and ERβ enzyme varied between the two assays. A 4× sample of ERα was prepared for a final concentration of 75 nM. Conversely, a 4× sample of ERβ was prepared for a final concentration of 23 nM within the assay. For both ERα and ERβ a 4× aliquot of Fluoromone was prepared for a final assay concentration of 4.5 nM. Despite the differences in concentration of ERα and ERβ, the binding assay protocol for the two different enzymes remained the same. Drug dilutions were prepared for a 2× dilution in the ER specific buffer that was provided within the assay kit. In addition to the drug dilutions a 2× aliquot of Fluoromone was prepared by adding 10 μL of 4× with 10 μL of ER specific buffer. A 2× dilution of enzyme and fluorophore was achieved by adding equal portions of each to each other. To a black 384-plate well plate, 10 μL of compound were added to the wells followed by 10 μL of the 2× mixture of enzyme and fluoromone. Two controls were included in the plate design. In one control, enzyme and compound were omitted so that only ER specific buffer and fluoromone remained. A separate control contained the enzyme and fluoromone control. […] The plate was incubated at RT for 2 hours before being read with λex 485 nm and λem 535 nm.

GPER [2] = target: T1, GPER; test: cAMP HTRF antagonism assay (G-1 induced inhibition of adenylate cyclase) in HL-60 cells; format: cell-based
Procedure: In vitro cAMP biological evaluation. A homogeneous time resolved fluorescence (HTRF®) components for cAMP was purchased by CisBio (Bedford, Mass.). HL-60 cells were grown in 10% charcoal-stripped RPMI media for 72 hours prior to assays. Cells were centrifuged and counted with a hemocytometer from Hausser Scientific (Horsham, Pa.). The total number of cells needed to complete the assay was determined based upon 8,000 cells/well. The determined number of cells was diluted in 5:1 (5×) stimulation buffer contain 500 μM of 3-isobutyl-1-methylxanthine (IBMX) (Sigma Aldrich, Saint Louis, Mo.). To an HTRF 96-well low volume white plate from CisBio, 5 μL of cold cell suspension was added to each plate, followed by 4 μL of (2.5×) of agonist or stimulation buffer (negative control and non-stimulated cells). Cells were covered with a clear plastic film and incubated at 37° C. for 15 mins in an incubator. After 15 mins cell 1 μL of 10 μM (10×) forskolin was added to each well. The plate was once again sealed and incubated at 37° C. for 15 mins. After 15 mins 5 μL of cAMP-d2 (acceptor) was added to all wells, including controls. Conversely, 5 μL of monoclonal anti-cAMP Eu3^+ cryptate (donor) was added to only the wells with test compound and non-stimulated cells. Following addition, the plate was sealed, covered with aluminum foil, and incubated at room temperature for 30 mins. After the allotted time cells were read using Flexstation3 and with λex 314 nm and λem 665 nm. For an antagonism platform the procedure was slightly altered. The EC80 of G-1 was recalculated based upon cAMP agonism results. To the plate, 2 μL of (5×) antagonist were added dose wise followed by the addition of 5 μL of cold cell suspension to all wells (top and bottom well were designated as G-1 control and forskolin control, respectively). Cells and antagonists were incubated for 15 mins at 37° C. After 15 mins, 2 μL of the (5×) EC80 of G-1 was added to wells with antagonist. […] Cells were allowed to equilibrate at room temperature for 30 minutes before being read at λex 314 nm and λem 665 nm.

ERβ = target: T3, ERβ (Homo sapiens, UniProt Q92731); test: ERβ PolarScreen fluorescence polarization competitor assay; format: binding; conditions: below 10 μM
T3 construct: purchased Invitrogen (Carlsbad, Calif.)
Procedure: as §1

T1 sequence (Q99527 whole entry): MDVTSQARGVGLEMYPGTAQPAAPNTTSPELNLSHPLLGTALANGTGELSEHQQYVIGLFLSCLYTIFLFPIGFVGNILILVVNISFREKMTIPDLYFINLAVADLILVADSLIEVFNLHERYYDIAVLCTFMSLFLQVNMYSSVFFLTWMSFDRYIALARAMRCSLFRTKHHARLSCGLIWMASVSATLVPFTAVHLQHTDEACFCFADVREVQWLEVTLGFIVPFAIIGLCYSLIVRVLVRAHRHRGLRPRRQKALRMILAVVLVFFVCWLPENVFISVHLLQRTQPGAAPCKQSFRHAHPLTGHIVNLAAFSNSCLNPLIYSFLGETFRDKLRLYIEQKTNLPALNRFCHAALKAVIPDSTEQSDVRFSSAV
T3 sequence (Q92731 whole entry): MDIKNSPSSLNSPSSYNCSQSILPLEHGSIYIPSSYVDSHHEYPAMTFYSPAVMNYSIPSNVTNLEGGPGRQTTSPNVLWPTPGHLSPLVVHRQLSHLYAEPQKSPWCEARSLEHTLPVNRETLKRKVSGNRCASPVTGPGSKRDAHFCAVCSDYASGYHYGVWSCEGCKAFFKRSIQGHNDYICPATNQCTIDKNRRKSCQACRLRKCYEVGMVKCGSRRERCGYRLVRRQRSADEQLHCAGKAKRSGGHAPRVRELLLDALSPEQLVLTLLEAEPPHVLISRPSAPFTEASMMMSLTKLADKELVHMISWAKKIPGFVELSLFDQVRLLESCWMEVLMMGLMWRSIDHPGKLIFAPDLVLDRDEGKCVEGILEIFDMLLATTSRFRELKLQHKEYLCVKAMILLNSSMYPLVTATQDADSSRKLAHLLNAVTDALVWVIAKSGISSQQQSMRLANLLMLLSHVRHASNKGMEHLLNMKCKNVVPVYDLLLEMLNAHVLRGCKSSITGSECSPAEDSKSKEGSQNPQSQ

| Structure (SMILES) | IC50 (GPER [1]) | also measured |
| --- | --- | --- |
| CC(C)(C)c1ccc(NCc2ccc(-c3ccccc3)cc2)c(C2CCCCC2)c1 [Compound 20] | 132 ± 145 nM | – |
| COc1ccc(CNc2ccc(C(C)(C)C)cc2C2CCCCC2)cc1 [Compound 22] | 874 ± 49 nM | – |
| CC(C)(C)c1ccc(NCc2ccc(Cl)c(Cl)c2)c(C2CCCCC2)c1 [Compound 25] | 657 ± 94 nM | – |

More lines, main results first:

| IC50 (GPER [1]) | Structure (SMILES) | also measured |
| --- | --- | --- |
| 260 ± 110 nM | CC(C)c1ccc(NCc2ccc3ccccc3c2)c(C2CCCCC2)c1 [Compound 5] | – |
| 60.8 ± 18 nM | Cc1ccc(CNc2ccc(C(C)(C)C)cc2C2CCCCC2)cc1 [Compound 21] | ERα binding (ERα; 10 μM (highest concentration)): a low level of binding; ERα binding (ERα; below 10 μM): do not exhibit binding; Antagonism of G-1 induced inhibition of adenylate cyclase (GPER [2]; 100 nM): also observed, less so; Antagonism of G-1 induced inhibition of adenylate cyclase (GPER [2]; 1 μM exposure): caused a decrease in adenylate cyclase inhibition; Reduction of G-1 induced inhibition of cAMP formation / adenylate cyclase (GPER [2]; EC80 of G-1, 1 μM forskolin, concentration not given): able to decrease inhibition of adenylate cyclase; ERβ binding (ERβ): do not exhibit binding |
| 331 ± 160 nM | CC(C)(C)c1ccc(NCc2ccccc2)c(C2CCCCC2)c1 [Compound 23] | – |
| 141 ± 14 nM | CC(C)(C)c1ccc(NCc2ccc(Cl)cc2)c(C2CCCCC2)c1 [Compound 24] | – |
